# From PubChem BioAssay (NCI)
# “And” between values parts separate entries of the source, which are not always exact repeats. Identical values can stand only once.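 Grown in 96-well plates, cells were treated for 48 hours with each compound at five concentrations. Insufficient inhibition: endpoint recorded as highest concentration tested. Abbreviation: GI50, concentration required for 50% inhibition of growth. Definition used: TGI = concentration required for complete inhibition of growth.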
# What was measured:
# Assay in all cases: NCI anticancer screen, dose series, 48 h
# CAKI-1 renal = tested on: CAKI-1 renal
# HL-60(TB) leukemia = tested on: HL-60(TB) leukemia
# LOX IMVI melanoma = tested on: LOX IMVI melanoma
# SK-MEL-5 melanoma = tested on: SK-MEL-5 melanoma
# RPMI-8226 leukemia = tested on: RPMI-8226 leukemia
# M14 melanoma = tested on: M14 melanoma
# SK-MEL-2 melanoma = tested on: SK-MEL-2 melanoma
# COLO 205 colon = tested on: COLO 205 colon
# A498 renal = tested on: A498 renal
# SK-MEL-28 melanoma = tested on: SK-MEL-28 melanoma
SMILES,TGI (CAKI-1 renal) [µM],TGI (HL-60(TB) leukemia) [µM],TGI (LOX IMVI melanoma) [µM],TGI (SK-MEL-5 melanoma),TGI (RPMI-8226 leukemia) [µM],TGI (M14 melanoma) [µM],TGI (SK-MEL-2 melanoma) [µM],TGI (COLO 205 colon) [µM],TGI (A498 renal) [µM],TGI (SK-MEL-28 melanoma),GI50 (CAKI-1 renal) [µM],GI50 (HL-60(TB) leukemia) [µM],GI50 (LOX IMVI melanoma) [µM],GI50 (SK-MEL-5 melanoma),GI50 (RPMI-8226 leukemia) [µM],GI50 (M14 melanoma) [µM],GI50 (SK-MEL-2 melanoma),GI50 (COLO 205 colon) [µM],GI50 (A498 renal) [µM],GI50 (SK-MEL-28 melanoma)
O=C(O)CNS(=O)(=O)c1ccc(NC(=O)c2cccc([N+](=O)[O-])c2)cc1,> 100,> 100,> 100,> 100 µM,> 100,> 100,> 100,> 100,> 100,> 100 µM,,,,,,,,,,
O=C(N/N=C\c1cc(Cl)ccc1O)N/N=C/c1cc(Cl)ccc1O,> 100,> 100,> 100,> 100 µM,> 100,> 100,> 100,> 100,> 100,> 100 µM,3.36,6.22,2.14,6.41 µM,2.79,5.24,> 100 µM,4.92,> 100,> 100 µM
CC(=O)OCC1OC(O[C@@H]2C[C@H]3C(C)(C)[C@H](OC(C)=O)CC[C@]3(C)[C@H]3CC[C@@H]4[C@]5(CC[C@@]4(C)[C@@]32C)O[C@@H]([C@H](O)C(C)(C)O)C[C@@H]5C)C(O)C(O)C1O (stereo partly drawn),13.5,10.2,15.6,22.5 µM,19,17.6,19.7,14.3,25.9,24 µM,,2.93,3.61,10.7 µM,3.37,5.01,6.04 µM,4.11,11.7,10.2 µM
COc1cc(C(=O)c2c(-c3ccccc3)oc3ccccc23)cc(OC)c1O,16,3.85,21.6,12.6 µM,12.9,10.7,29.2,43.3,5.76,25.1 µM,0.766,0.565,4.33,2.57 µM,1.83,0.58,6.78 µM,18.9,2.09,10.4 µM
Cc1nc(Nc2ccc([N+](=O)[O-])cc2)sc1C(=O)/C=C/c1ccc(N(C)C)cc1,> 100,> 100,> 100,> 100 µM,> 100,,> 100,> 100,> 100,> 100 µM,,,,,,,,,,
CC(C)(C)c1ccc(C(O)(c2ccc(C(C)(C)C)cc2)c2ccc(C(C)(C)C)cc2)cc1,> 100,> 100,> 100,> 100 µM,> 100,> 100,> 100,> 100,> 100,> 100 µM,,,,,,,,,,
C/C(=N\N=C(N)N)c1sc(-c2nc(C)c(/C(C)=N/N=C(N)N)s2)nc1C,> 100,88.2,> 58.3,> 100 µM,> 100,> 100,> 100,> 90.6,> 100,> 100 µM,,,,,,,,,,
CCNC1=CC(=O)c2ncccc2C1=O,21.1,7.13,3.22,1.11 µM,29.6,2.46,7.53,3.3,2.87,3.52 µM,7.5,1.87,1,0.298 µM,7.08,1.11,2.36 µM,1.63,1.24,1.71 µM
COCCOCCOCCOCCOc1ccc2c(c1)C(=O)c1nc3ncccc3c(=O)n1-2,2.02,5.05,1.62,0.312 µM,4.94,1.44,6.21,3.35,3.16,2.03 µM,0.663,1.8,0.39,0.158 µM,1.86,0.312,2.42 µM,1.88,1.77,0.765 µM
CCn1cc(C2NC(=O)c3cc(F)ccc3N2)c2cccc(Cl)c21 (stereo not drawn),> 100,0.731,> 100,> 100 µM,> 100,> 100,> 100,,0.402,> 100 µM,0.196,0.121,0.374,0.446 µM,0.359,0.138,0.887 µM,0.349,0.0879,0.847 µM
COc1ccccc1OCC(O)CO (stereo not drawn),> 100,> 100,> 100,> 100 µM,> 100,> 100,> 100,> 100,> 100,> 100 µM,> 100,> 100,> 100,> 100 µM,> 100,> 100,> 100 µM,> 100,> 100,> 100 µM
Cn1cc(/C=C2\C(=O)Nc3cccnc32)c2ccccc21,> 25,> 25,> 25,> 25 µM,> 25,> 25,> 25,> 25,> 25,> 25 µM,10.2,> 22.5,7.77,9.2 µM,> 25,9.32,11.6 µM,20.6,4.73,> 25 µM
COc1ccc(C2CC(C)=Nc3c([nH]c(=S)[nH]c3=O)N2)cc1 (stereo not drawn),65,40.1,34.4,32.5 µM,50.3,37.4,> 100,32.7,36.9,60.5 µM,,,,,,,,,,
O=C1CCC(c2ccccc2)(c2ccccc2)CC1,> 100,81,> 100,> 100 µM,> 100,> 100,> 100,89.9,> 100,> 100 µM,,,,,,,,,,
O=C(/C=C/c1cccs1)Nc1ncc(Cc2ccccc2F)s1,> 100,0.589,> 100,> 100 µM,> 100,,> 100,26.9,0.899,> 100 µM,0.0753,0.213,0.18,0.242 µM,0.33,0.12,0.518 µM,0.325,0.175,0.886 µM
Nc1ccccc1C#Cc1ccccc1C#CCCCCO,67.1,51.8,32.6,94.3 µM,72.2,36.2,> 100,59.3,77.8,49.7 µM,22.8,23.2,17,31.5 µM,29.8,17.1,28.4 µM,23.7,21.9,28.4 µM
O=C(O)C(O)C(O)C1[O][Sb][O]C1CO (stereo not drawn),> 100,> 100,> 100,> 100 µM and 30.7 µM,> 100,> 100,> 100,> 100,> 100,> 100 µM and 43.4 µM,> 100,> 53.1,> 100,27.2 µM and 12.7 µM,> 100,> 100,85.8 µM and 36.8 µM,> 100,> 100,> 100 µM and 13.7 µM
C1CCN2CC34CC(CC5CCCN(C6CCCC3N6)C54)C2C1 (stereo not drawn),> 100,> 100,> 100,> 100 µM,> 100,> 100,> 100,> 100,> 100,> 100 µM,,,,,,,,,,
COc1ccccc1OCC(COC(=O)Nc1ccc(C)cc1)OC(=O)Nc1ccc(C)cc1 (stereo not drawn),34.3,37.4,30.2,47.7 µM,38.8,46.2,31.4,32.4,> 100,60.8 µM,,,,,,,,,,
O=C(Nc1ccc(-c2nc3ccc(NC(=O)c4ccc(Cl)cc4)cc3[nH]2)cc1)c1ccc(Cl)cc1,23.7,16.2,11.4,14.4 µM,23,18,25.2,6.54,16.8,14.9 µM,7.12,4.12,1.94,3.53 µM,5.77,5.28,12.6 µM,2.47,3.56,2.78 µM
c1ccc(CN(Cc2ccccn2)Cn2cccn2)nc1,> 100,55.8,> 100,> 100 µM,75.6,> 100,> 100,> 100,> 100,> 100 µM,,,,,,,,,,
CCN(CC)c1ccc(/C=N\NC(=O)c2cccc(Nc3ccnc(C(F)(F)F)c3)c2)c(O)c1,0.496,1.05,2.22,0.883 µM,2.2,1.43,> 41.2,2.58,17,> 20.8 µM,0.182,0.299,0.133,0.242 µM,0.152,0.217,0.893 µM,0.327,0.541,0.191 µM
N#CC(/C(=N\NC(N)=S)C(=O)NC1C2CC3CC(C2)CC1C3)c1ccc(Cl)cc1 (stereo not drawn),> 100,> 100,> 100,> 100 µM,> 100,> 100,> 100,> 100,> 100,> 100 µM,,,,,,,,,,
CC(C)=CCC[C@](C)(O)[C@H]1CC[C@]2(C)[C@@H]1CC[C@@H]1[C@@]3(C)CC[C@H](OC(=O)CCC(=O)O)C(C)(C)[C@@H]3CC[C@]12C,> 100,53.1,30.7,43.2 µM,52.9,> 100,85.6,95.3,> 100,34.8 µM,24.7,22.2,16.6,17.8 µM,7.65,73.6,25.3 µM,27.4,80.4,16.9 µM
CN1C=CN(Cc2ccc(-c3ccccn3)nc2)[CH-]1.CN1C=CN(Cc2ccc(-c3ccccn3)nc2)[CH-]1.[Au+3],> 100,6.84,13.4,17.8 µM,20.1,20.6,32.4,17.8,> 68.8,14.5 µM,18.4,1.22,2.89,1.36 µM,1.34,2.82,7.05 µM,0.421,8.53,2.47 µM
COc1cc(Nc2ncc(-c3ccccc3)o2)cc(OC)c1OC,> 25,> 9.44,> 25,,> 25,> 25,> 11.6,> 25,> 7.47,> 25 µM,0.37,0.858,2.14,0.138 µM,16.3,1.26,1.52 µM,2.15,0.607,4.38 µM
Cc1cc(I)cc(CN(C)CCCCN2CCCC2)c1O,38.9,35.2,30.8,25.2 µM,36,29.1,34.8,26.1,30.2,27.8 µM,17.5,16,15.5,12.7 µM,15.1,15.1,18.2 µM,13.4,13.4,13.4 µM
COC(=N)/C(=C1\OC(N)=C(c2ccc(Cl)cc2)C1=O)c1ccc(Cl)cc1,> 100,> 100,> 100,> 100 µM,> 100,> 100,> 100,> 100,> 100,> 100 µM,,,,,,,,,,
C=C1C(=O)O[C@H]2[C@H](OC(C)=O)[C@@H](C)CCC/C(C)=C/CC[C@]3(CO3)[C@H](O)C[C@@H]12,4.51,5.63,4.75,27.4 µM,5.49,,31.9,13.7,33.4,4.8 µM,1.91,2.31,2.07,13.4 µM,1.84,,14.8 µM,3.89,16.9,2.21 µM
